According to patent US11104674B2 (Hoffmann-La Roche Inc., priority 2016, dated 2021):

These molecules were tested on HBsAg (assay: HBsAg assay (chemiluminescence immunoassay of secreted HBsAg)). Details: HBsAg secretion, HepG2.2.15 cells, CLIA of culture supernatant.
Type: cell-based, HBV
Procedure, shortened: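 HepG2.2.15 cells, in duplicate, treated with three-fold serial compound dilutions (1% DMSO final); secreted HBsAg in supernatant quantified by chemiluminescence immunoassay; IC50 is the concentration reducing HBsAg secretion by 50% versus the DMSO control.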

With `CC1c2cnc(-c3ncccn3)nc2CCN1c1cc(N2CCN(S(C)(=O)=O)CC2)cc(F)n1` (single isomer, unassigned) [Example 98, (+)-6-[6-Fluoro-4-(4-methylsulfonylpiperazin-1-yl)-2-pyridyl]-5-methyl-2-pyrimidin-2-yl-7,8-dihydro-5H-pyrido[4,3-d]pyrimidine] the IC50 was 410 nM.

Same assay, conditions: Hepatitis B virus, HepG2.2.15, HBsAg secretion, HepG2.2.15 cells, CLIA of culture supernatant

Point of comparison: `CC1CCN(c2cc(F)cc(N3CCc4nc(-c5ncccn5)ncc4C3C)n2)C1` (stereo not shown) [Example 19, 6-[4-fluoro-6-(3-methylpyrrolidin-1-yl)-2-pyridyl]-5-methyl-2-pyrimidin-2-yl-7,8-dihydro-5H-pyrido[4,3-d]pyrimidine], IC50 11 nM. Against it:
- CC1c2cnc(-c3ccccn3)nc2CCN1c1cc(N2CCC(C(=O)NS(C)(=O)=O)C2)cc(F)n1 (stereo not shown) [Example 86, 1-[2-fluoro-6-[5-methyl-2-(2-pyridyl)-7,8-dihydro-5H-pyrido[4,3-d]pyrimidin-6-yl]-4-pyridyl]-N-methylsulfonyl-pyrrolidine-3-carboxamide] — 110-fold higher, 1240 nM
- CC1c2cnc(-c3ncccn3)nc2CCN1c1cc(F)cc(N(C)CCCCC(N)=O)n1 (stereo not shown) [Example 142, 5-[[4-fluoro-6-(5-methyl-2-pyrimidin-2-yl-7,8-dihydro-5H-pyrido[4,3-d]pyrimidin-6-yl)-2-pyridyl]-methyl-amino]pentanamide] — 2.3-fold higher, 25 nM
- CC1c2cnc(-c3ccccn3)nc2CCN1c1cc(F)cc(N2CCC(C(N)=O)CC2)n1 (stereo not shown) [Example 74, 1-[4-fluoro-6-[5-methyl-2-(2-pyridyl)-7,8-dihydro-5H-pyrido[4,3-d]pyrimidin-6-yl]-2-pyridyl]piperidine-4-carboxamide] — 1.7-fold higher, 19 nM
- CC1c2cnc(-c3ncccn3)nc2CCN1c1cc(N(C)C(=O)c2ccccc2)cc(F)n1 (stereo not shown) [Example 163, N-[2-Fluoro-6-(5-methyl-2-pyrimidin-2-yl-7,8-dihydro-5H-pyrido[4,3-d]pyrimidin-6-yl)-4-pyridyl]-N-methyl-benzamide] — 8.3-fold higher, 91 nM
- CC1CCN(c2cc(F)nc(N3CCc4nc(-c5ncccn5)ncc4C3C)c2)C1=O (stereo not shown) [Example 152, 1-[2-Fluoro-6-(5-methyl-2-pyrimidin-2-yl-7,8-dihydro-5H-pyrido[4,3-d]pyrimidin-6-yl)-4-pyridyl]-3-methyl-pyrrolidin-2-one] — 3.7-fold lower, 3 nM
- CC1c2cnc(-c3ncccn3)nc2CCN1c1cc(N2CCN(CCC(N)=O)CC2)cc(F)n1 (stereo not shown) [Example 104, 3-[4-[2-fluoro-6-(5-methyl-2-pyrimidin-2-yl-7,8-dihydro-5H-pyrido[4,3-d]pyrimidin-6-yl)-4-pyridyl]piperazin-1-yl]propanamide] — 20-fold higher, 220 nM
- CC1c2cnc(-c3ncccn3)nc2CCN1c1cc(N2CCCCS2(=O)=O)cc(F)n1 (stereo not shown) [Example 162, 2-[2-Fluoro-6-(5-methyl-2-pyrimidin-2-yl-7,8-dihydro-5H-pyrido[4,3-d]pyrimidin-6-yl)-4-pyridyl]thiazinane1,1-dioxide] — within 1.5-fold, 15 nM
- CC(=O)N1CCN(c2cc(F)cc(N3CCc4nc(-c5ncccn5)ncc4C3C)n2)CC1 (stereo not shown) [Example 17, 1-[4-[4-fluoro-6-(5-methyl-2-pyrimidin-2-yl-7,8-dihydro-5H-pyrido[4,3-d]pyrimidin-6-yl)-2-pyridyl]piperazin-1-yl]ethanone] — within 1.5-fold, 15 nM
- CCC1CN(c2cc(F)cc(N3CCc4nc(-c5ncccn5)ncc4C3C)n2)CCO1 (stereo not shown) [Example 7, 2-ethyl-4-[4-fluoro-6-(5-methyl-2-pyrimidin-2-yl-7,8-dihydro-5H-pyrido[4,3-d]pyrimidin-6-yl)-2-pyridyl]morpholine] — 3.8-fold higher, 42 nM
- CC1CN(c2cc(F)nc(N3CCc4nc(-c5ncccn5)ncc4C3C)c2)CC(=O)N1 (stereo not shown) [Example 134, 4-[2-fluoro-6-(5-methyl-2-pyrimidin-2-yl-7,8-dihydro-5H-pyrido[4,3-d]pyrimidin-6-yl)-4-pyridyl]-6-methyl-piperazin-2-one] — within 1.5-fold, 15 nM
- COCC1CCCN1c1cc(F)cc(N2CCc3nc(-c4ncccn4)ncc3C2C)n1 (stereo not shown) [Example 35, 6-[4-fluoro-6-[2-(methoxymethyl)pyrrolidin-1-yl]-2-pyridyl]-5-methyl-2-pyrimidin-2-yl-7,8-dihydro-5H-pyrido[4,3-d]pyrimidine] — 3-fold higher, 33 nM
- CC1c2cnc(-c3ncccn3)nc2CCN1c1cc(N(C)CCCCC(N)=O)cc(F)n1 (stereo not shown) [Example 141, 5-[[2-fluoro-6-(5-methyl-2-pyrimidin-2-yl-7,8-dihydro-5H-pyrido[4,3-d]pyrimidin-6-yl)-4-pyridyl]-methyl-amino]pentanamide] — 3.9-fold higher, 43 nM
- CC1c2cnc(-c3ncccn3)nc2CCN1c1cc(F)cc(N2CCOC(CC(=O)O)C2)n1 (stereo not shown) [Example 29, 2-[4-[4-fluoro-6-(5-methyl-2-pyrimidin-2-yl-7,8-dihydro-5H-pyrido[4,3-d]pyrimidin-6-yl)-2-pyridyl]morpholin-2-yl]acetic acid] — 66-fold higher, 722 nM
- CC1c2cnc(-c3ncccn3)nc2CCN1c1cc(F)cc(N2C3CCC2COC3)n1 (stereo not shown) [Example 11, 8-[4-fluoro-6-(5-methyl-2-pyrimidin-2-yl-7,8-dihydro-5H-pyrido[4,3-d]pyrimidin-6-yl)-2-pyridyl]-3-oxa-8-azabicyclo[3.2.1]octane] — 17-fold higher, 188 nM
- COCC1CN(c2cc(F)cc(N3CCc4nc(-c5ncccn5)ncc4C3C)n2)CCO1 (stereo not shown) [Example 15, 4-[4-fluoro-6-(5-methyl-2-pyrimidin-2-yl-7,8-dihydro-5H-pyrido[4,3-d]pyrimidin-6-yl)-2-pyridyl]-2-(methoxymethyl)morpholine] — 2.7-fold higher, 30 nM
- CCC1CN(c2cc(F)nc(N3CCc4nc(-c5ncccn5)ncc4C3C)c2)CCO1 (stereo not shown) [Example 6, 2-ethyl-4-[2-fluoro-6-(5-methyl-2-pyrimidin-2-yl-7,8-dihydro-5H-pyrido[4,3-d]pyrimidin-6-yl)-4-pyridyl]morpholine] — within 1.5-fold, 9 nM
- CC1c2cnc(-c3ncccn3)nc2CCN1c1cc(F)cc(N2CC(C(=O)O)C2)n1 (stereo not shown) [Example 53, 1-[4-fluoro-6-(5-methyl-2-pyrimidin-2-yl-7,8-dihydro-5H-pyrido[4,3-d]pyrimidin-6-yl)-2-pyridyl]azetidine-3-carboxylic acid] — 430-fold higher, 4710 nM
- CC1c2cnc(-c3ccccn3)nc2CCN1c1cc(N2CCC(C(N)=O)CC2)cc(F)n1 (stereo not shown) [Example 73, 1-[2-fluoro-6-[5-methyl-2-(2-pyridyl)-7,8-dihydro-5H-pyrido[4,3-d]pyrimidin-6-yl]-4-pyridyl]piperidine-4-carboxamide] — within 1.5-fold, 10 nM
- CC1c2cnc(-c3ncccn3)nc2CCN1c1cc(F)cc(N2CCN(S(C)(=O)=O)CC2)n1 (stereo not shown) [Example 57, 6-[4-fluoro-6-(4-methylsulfonylpiperazin-1-yl)-2-pyridyl]-5-methyl-2-pyrimidin-2-yl-7,8-dihydro-5H-pyrido[4,3-d]pyrimidine] — 2.5-fold higher, 28 nM
- CC1c2cnc(-c3ccccn3)nc2CCN1c1cc(F)cc(NCC(F)F)n1 (stereo not shown) [Example 80, N-(2,2-difluoroethyl)-4-fluoro-6-[5-methyl-2-(2-pyridyl)-7,8-dihydro-5H-pyrido[4,3-d]pyrimidin-6-yl]pyridin-2-amine] — 11-fold higher, 124 nM
